Results on six molecules are retold here after ChEMBL document CHEMBL4052696, “Varic acid analogues from fungus as PTP1B inhibitors: Biological evaluation and structure-activity relationships” (Bioorg Med Chem Lett, 2017).

Data set [1] addresses T1, Tyrosine-protein phosphatase non-receptor type 1 (Homo sapiens, UniProt P18031).
T1 sequence (P18031 whole entry): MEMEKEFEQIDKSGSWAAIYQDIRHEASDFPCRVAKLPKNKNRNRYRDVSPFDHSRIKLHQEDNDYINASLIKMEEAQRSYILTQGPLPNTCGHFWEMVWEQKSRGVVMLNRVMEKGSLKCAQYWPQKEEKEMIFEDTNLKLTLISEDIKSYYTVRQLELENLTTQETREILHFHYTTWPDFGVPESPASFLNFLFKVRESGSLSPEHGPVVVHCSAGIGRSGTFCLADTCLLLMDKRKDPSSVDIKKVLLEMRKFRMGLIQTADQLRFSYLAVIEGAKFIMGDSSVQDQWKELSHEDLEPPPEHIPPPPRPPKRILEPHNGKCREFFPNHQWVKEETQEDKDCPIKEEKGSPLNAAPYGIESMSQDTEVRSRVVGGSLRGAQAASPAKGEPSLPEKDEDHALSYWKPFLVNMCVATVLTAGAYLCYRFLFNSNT
As to the kind of experiment: Inhibition of PTP1B (unknown origin) using p-nitrophenyl phosphate substrate incubated for 30 mins.

For data set [2], the target named is T2, Tyrosine-protein phosphatase non-receptor type 11 (Homo sapiens, UniProt Q06124).
T2 sequence (Q06124 whole entry): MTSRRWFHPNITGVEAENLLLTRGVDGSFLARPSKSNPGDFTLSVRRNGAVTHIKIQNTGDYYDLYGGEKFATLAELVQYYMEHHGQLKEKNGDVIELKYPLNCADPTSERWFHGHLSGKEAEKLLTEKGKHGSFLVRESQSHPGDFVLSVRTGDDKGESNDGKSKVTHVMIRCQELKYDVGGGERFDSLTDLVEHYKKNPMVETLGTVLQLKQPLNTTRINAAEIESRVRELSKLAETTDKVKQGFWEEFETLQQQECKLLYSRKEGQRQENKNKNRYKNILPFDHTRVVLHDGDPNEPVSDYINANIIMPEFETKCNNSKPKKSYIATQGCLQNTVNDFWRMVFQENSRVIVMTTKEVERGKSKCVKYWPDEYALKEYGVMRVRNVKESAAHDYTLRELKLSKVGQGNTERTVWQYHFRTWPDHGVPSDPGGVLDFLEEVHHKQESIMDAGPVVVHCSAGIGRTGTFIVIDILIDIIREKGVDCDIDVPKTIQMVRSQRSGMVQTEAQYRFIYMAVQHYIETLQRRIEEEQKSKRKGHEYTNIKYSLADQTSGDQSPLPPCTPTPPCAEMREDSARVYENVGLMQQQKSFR
Briefly: Inhibition of SHP2 (unknown origin) using p-nitrophenyl phosphate substrate incubated for 30 mins.

Data set [3] concerns the target Receptor-type tyrosine-protein phosphatase F (Homo sapiens, UniProt P10586). As to the kind of experiment: Inhibition of PTPLAR (unknown origin) using p-nitrophenyl phosphate substrate incubated for 30 mins.
Data set [4] concerns the target T3, Tyrosine-protein phosphatase non-receptor type 2 (Homo sapiens, UniProt P17706).
T3 sequence (P17706 whole entry): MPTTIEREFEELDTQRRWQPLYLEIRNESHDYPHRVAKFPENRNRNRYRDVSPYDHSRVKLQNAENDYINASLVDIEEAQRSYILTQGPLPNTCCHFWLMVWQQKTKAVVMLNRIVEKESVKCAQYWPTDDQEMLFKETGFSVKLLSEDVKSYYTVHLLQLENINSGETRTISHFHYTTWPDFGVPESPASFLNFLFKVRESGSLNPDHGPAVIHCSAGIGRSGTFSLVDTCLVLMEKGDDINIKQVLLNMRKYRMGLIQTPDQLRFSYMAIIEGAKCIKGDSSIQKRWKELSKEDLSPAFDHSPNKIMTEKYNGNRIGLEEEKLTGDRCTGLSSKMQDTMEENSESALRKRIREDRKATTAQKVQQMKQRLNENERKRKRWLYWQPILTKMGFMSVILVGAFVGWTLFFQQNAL
Briefly: Inhibition of TCPTP (unknown origin) using p-nitrophenyl phosphate substrate incubated for 30 mins.

The test system of data set [5] is Rattus norvegicus. Briefly: Toxicity in normal Wistar rat assessed as induction of hypoglycemia at 10 mg/kg, ip dosed 30 mins before insulin injection and measured 30 mins post insulin injection by glucose-oxidase assay. The class given is organism-based. The settings on record: in vivo, 0.5 h.
The subject of data set [6] is Rattus norvegicus. Briefly: Toxicity in type 2 diabetic Wistar rat assessed as induction of hypoglycemia at 10 mg/kg, ip dosed 30 mins before insulin injection and measured 30 mins post insulin injection by glucose-oxidase assay. It is filed as organism-based. The settings on record: in vivo, 0.5 h.

Chain of Receptor-type tyrosine-protein phosphatase F (P10586 whole entry): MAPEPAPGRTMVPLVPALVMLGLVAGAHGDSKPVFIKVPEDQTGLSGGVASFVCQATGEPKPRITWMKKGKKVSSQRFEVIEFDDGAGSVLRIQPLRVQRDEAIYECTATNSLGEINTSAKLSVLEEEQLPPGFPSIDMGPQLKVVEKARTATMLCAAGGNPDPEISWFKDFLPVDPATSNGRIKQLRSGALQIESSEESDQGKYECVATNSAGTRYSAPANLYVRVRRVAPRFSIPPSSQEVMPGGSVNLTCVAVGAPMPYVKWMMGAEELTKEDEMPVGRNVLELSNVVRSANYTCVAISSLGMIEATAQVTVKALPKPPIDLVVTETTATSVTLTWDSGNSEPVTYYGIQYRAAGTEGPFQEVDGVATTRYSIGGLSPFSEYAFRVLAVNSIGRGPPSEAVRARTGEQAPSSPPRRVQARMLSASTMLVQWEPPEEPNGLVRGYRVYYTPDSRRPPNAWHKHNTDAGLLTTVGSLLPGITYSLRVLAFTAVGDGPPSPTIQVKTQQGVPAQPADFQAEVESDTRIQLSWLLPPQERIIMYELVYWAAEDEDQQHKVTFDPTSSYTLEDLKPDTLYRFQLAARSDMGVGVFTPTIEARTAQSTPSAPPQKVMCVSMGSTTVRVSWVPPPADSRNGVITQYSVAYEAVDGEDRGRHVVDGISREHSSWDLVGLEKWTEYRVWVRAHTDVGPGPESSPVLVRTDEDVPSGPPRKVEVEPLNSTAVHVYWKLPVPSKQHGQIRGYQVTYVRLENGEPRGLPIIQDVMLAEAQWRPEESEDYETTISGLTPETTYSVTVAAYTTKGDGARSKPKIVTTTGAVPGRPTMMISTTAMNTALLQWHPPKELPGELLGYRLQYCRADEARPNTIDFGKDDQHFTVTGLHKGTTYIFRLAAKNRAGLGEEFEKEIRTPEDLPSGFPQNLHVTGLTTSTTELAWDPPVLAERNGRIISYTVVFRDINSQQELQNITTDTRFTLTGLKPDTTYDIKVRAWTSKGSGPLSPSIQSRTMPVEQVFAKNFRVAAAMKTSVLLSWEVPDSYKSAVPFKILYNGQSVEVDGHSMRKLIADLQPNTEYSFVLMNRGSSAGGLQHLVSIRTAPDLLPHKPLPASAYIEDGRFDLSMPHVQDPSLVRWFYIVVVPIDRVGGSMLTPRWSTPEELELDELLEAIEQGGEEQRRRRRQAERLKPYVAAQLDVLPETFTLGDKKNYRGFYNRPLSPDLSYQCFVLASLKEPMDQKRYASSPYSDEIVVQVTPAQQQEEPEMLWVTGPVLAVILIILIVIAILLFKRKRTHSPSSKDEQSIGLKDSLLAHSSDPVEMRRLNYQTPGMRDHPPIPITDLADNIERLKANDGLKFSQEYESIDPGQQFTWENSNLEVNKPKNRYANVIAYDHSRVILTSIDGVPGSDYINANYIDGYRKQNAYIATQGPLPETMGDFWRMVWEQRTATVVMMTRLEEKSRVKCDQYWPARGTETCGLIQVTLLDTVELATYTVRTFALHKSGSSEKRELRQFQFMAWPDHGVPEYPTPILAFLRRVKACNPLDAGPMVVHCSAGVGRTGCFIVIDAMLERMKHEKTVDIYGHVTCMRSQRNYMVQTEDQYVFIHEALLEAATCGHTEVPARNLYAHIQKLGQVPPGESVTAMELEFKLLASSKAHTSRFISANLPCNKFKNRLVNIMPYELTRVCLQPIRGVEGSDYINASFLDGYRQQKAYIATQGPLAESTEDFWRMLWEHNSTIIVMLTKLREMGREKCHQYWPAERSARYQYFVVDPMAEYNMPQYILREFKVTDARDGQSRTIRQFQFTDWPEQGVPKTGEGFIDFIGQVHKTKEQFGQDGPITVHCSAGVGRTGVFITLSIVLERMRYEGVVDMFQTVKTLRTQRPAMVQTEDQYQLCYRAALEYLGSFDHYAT

What is called IC50 is the concentration that inhibits the measured activity by half. Regarding `CCCc1cc(OC(=O)c2c(O)cc(OC(=O)c3c(O)cc(O)cc3CCC)cc2CCC)cc(O)c1C(=O)O`, the IC50 in data set [1] was 0.17 µM; in data set [2] it was 2.73 µM; in data set [3], > 20 µM; in data set [4], 17.7 µM. Moreover, the Activity result in the data set with Rattus norvegicus [5] and in the data set on Rattus norvegicus [6] was “Non-Toxic” in each case.
With `CCCc1cc(OC)cc(OC)c1C(=O)O`, the IC50 in data set [1], in data set [2], in data set [3] and in data set [4] was > 20 µM throughout.
Turning to `CCCc1cc(O)cc(OC(=O)c2c(O)cc(O)cc2CCC)c1`, the IC50 in data set [1] was 0.72 µM; in data set [2], 15 µM; in data set [3], > 20 µM; in data set [4], > 20 µM.
Turning to `CCCc1cc(O)cc(O)c1C(=O)O`, the IC50 in data set [1] was 1.58 µM; in data set [2], 12.6 µM; in data set [3] it was > 20 µM; in data set [4] it was > 20 µM.
Take `CCCc1cc(OC(=O)c2c(O)cc(O)cc2CCC)cc(O)c1C(=O)O`: the IC50 is 0.51 µM in data set [1], > 20 µM in data set [2], > 20 µM in data set [3] and > 20 µM in data set [4].
Consider `CCC/C=C/C=C/CCc1cc(O)cc(O)c1C(=O)O`, for which the IC50 in data set [1] is 4.27 µM; in data set [2], 0.18 µM; in data set [3], > 20 µM; in data set [4] it was 4.74 µM.
